According to patent US9211310B2, “Use of a Chinese medicine composition in preparing medicaments for treating secondary prevention of myocardial infarction” (TASLY PHARMACEUTICAL GROUP CO., LTD, priority 2010, dated 2015):

System: patients after acute myocardial infarction
Experiment: Life quality, Seattle Angina Questionnaire (SAQ), same clinical trial
Type: in vivo, human
Details: FAS
Source text: 3508 patients who were in accordance with the diagnostic standards of AMI for 28 days to 2 years and differentiated as Qi deficiency and blood stagnation syndrome by TCM were studied. 0.5 g Chinese medicine composition prepared by the method of EXAMPLE 1 (Coded as QSYQ) was administrated half an hour after meal, 3 times per day.
There were 19 questions in the Seattle angina questionnaire (SAQ), including 5 parts: physical limitation (PL), anginal stability (AS), anginal frequency (AF), treatment satisfaction (TS) and disease perception (DP). After being given necessary explanation by doctors, the questions were answered independently by patients.
They included the overall survival time, angina pectoris score, TCM symptom score and life quality score, where angina pectoris score, TCM symptom score and life quality score were evaluated at randomization, in 1st, 3rd, 6th, 9th, 12th month after treatment and 18th month after follow-up.
All evaluation results of SAQ were described during the period of observation, and Wilcoxon rank sum test was used for inter-group comparison.
The evaluation results in the SAQ were depicted in different observations, and inter-group comparison was tested by Wilcoxon Rank-sum test.

CC(=O)Oc1ccccc1C(=O)O [Control group, aspirine]
SAQ Question 1-1 Other reasons, percent of patients (9 months after treatment): (0.17%) | SAQ Question 1-1 Severely limited, number of patients (9 months after treatment): 1 | SAQ Question 1-1 Severely limited, percent of patients (9 months after treatment): (0.06%) | SAQ Question 1-1 Slightly limited, number of patients (9 months after treatment): 67 | SAQ Question 1-1 Slightly limited, percent of patients (9 months after treatment): (3.84%) | SAQ Question 1-2 Mildly limited, number of patients (9 months after treatment): 29 | SAQ Question 1-2 Mildly limited, percent of patients (9 months after treatment): (1.66%) | SAQ Question 1-2 Moderately limited, number of patients (9 months after treatment): 7 | SAQ Question 1-2 Moderately limited, percent of patients (9 months after treatment): (0.40%) | SAQ Question 1-2 Not limited, number of patients (9 months after treatment): 1631 | SAQ Question 1-2 Not limited, percent of patients (9 months after treatment): (93.52%) | SAQ Question 1-2 Other reasons, number of patients (9 months after treatment): 5 | SAQ Question 1-2 Other reasons, percent of patients (9 months after treatment): (0.29%) | SAQ Question 1-2 Severely limited, number of patients (9 months after treatment): 0 | SAQ Question 1-2 Severely limited, percent of patients (9 months after treatment): (0.00%) | SAQ Question 1-2 Slightly limited, number of patients (9 months after treatment): 72 | SAQ Question 1-2 Slightly limited, percent of patients (9 months after treatment): (4.13%) | SAQ Question 1-6: Mildly limited, patients (%) (9 months after treatment): (15.79%) | SAQ Question 1-6: Moderately limited, patients (%) (9 months after treatment): (11.08%) | SAQ Question 1-6: Not limited, patients (%) (9 months after treatment): (37.31%) | SAQ Question 1-6: Other reasons, patients (%) (9 months after treatment): (0.86%) | SAQ Question 1-6: Severely limited, patients (%) (9 months after treatment): (2.93%) | SAQ Question 1-6: Slightly limited, patients (%) (9 months after treatment): (32.03%) | SAQ Question 1-7: Mildly limited, patients (%) (9 months after treatment): (21.69%) | SAQ Question 1-7: Moderately limited, patients (%) (9 months after treatment): (11.86%) | SAQ Question 1-7: Not limited, patients (%) (9 months after treatment): (17.87%) | SAQ Question 1-7: Other reasons, patients (%) (9 months after treatment): (3.07%) | SAQ Question 1-7: Severely limited, patients (%) (9 months after treatment): (14.29%) | SAQ Question 1-7: Slightly limited, patients (%) (9 months after treatment): (31.23%) | SAQ Question 1-8: Mildly limited, patients (%) (9 months after treatment): (24.55%) | SAQ Question 1-8: Moderately limited, patients (%) (9 months after treatment): (15.03%) | SAQ Question 1-8: Not limited, patients (%) (9 months after treatment): (11.96%) | SAQ Question 1-8: Other limited, patients (%) (9 months after treatment): (3.60%) | SAQ Question 1-8: Severely limited, patients (%) (9 months after treatment): (17.93%) | SAQ Question 1-8: Slightly limited, patients (%) (9 months after treatment): (26.93%) | 8th question: Dissatisfied, patients (%) (12 months after treatment): (0.29%) | 8th question: Highly satisfied, patients (%) (12 months after treatment): (25.29%) | 8th question: Mostly dissatisfied, patients (%) (12 months after treatment): (2.01%) | 8th question: Mostly satisfied, patients (%) (12 months after treatment): (60.09%) | 8th question: Partly satisfied, patients (%) (12 months after treatment): (12.33%) | 9th question: Few, patients (%) (12 months after treatment): (39.74%) | 9th question: Mild, patients (%) (12 months after treatment): (30.56%) | 9th question: Moderate, patients (%) (12 months after treatment): (6.82%) | 9th question: Severe, patients (%) (12 months after treatment): (0.97%) | 9th question: Uneffective, patients (%) (12 months after treatment): (21.90%) | 10th question: Dissatisfied, patients (%) (12 months after treatment): (19.50%) | 10th question: Highly satisfied, patients (%) (12 months after treatment): (7.57%) | 10th question: Mostly dissatisfied, patients (%) (12 months after treatment): (19.21%) | 10th question: Mostly satisfied, patients (%) (12 months after treatment): (30.85%) | 10th question: Partly dissatisfied, patients (%) (12 months after treatment): (22.88%) | 11th question: Continuously worried, patients (%) (12 months after treatment): (3.15%) | 11th question: No worried, patients (%) (12 months after treatment): (7.11%) | 11th question: Occasionally worried, patients (%) (12 months after treatment): (40.60%) | 11th question: Often worried, patients (%) (12 months after treatment): (9.23%) | 11th question: Seldom worried, patients (%) (12 months after treatment): (39.91%) | SAQ 4th question, 1-2 times per week: % of patients (12 months after treatment): (10.61%) | SAQ 4th question, 1-2 times per week: number of patients (12 months after treatment): 185 | SAQ 4th question, 1-3 times per week: % of patients (12 months after treatment): (4.24%) | SAQ 4th question, 1-3 times per week: number of patients (12 months after treatment): 74 | SAQ 4th question, <1 time per week: % of patients (12 months after treatment): (16.51%) | SAQ 4th question, <1 time per week: number of patients (12 months after treatment): 288 | SAQ 4th question, Not used: % of patients (12 months after treatment): (64.56%) | SAQ 4th question, Not used: number of patients (12 months after treatment): 1126 | SAQ 4th question, ≧3 times per week: % of patients (12 months after treatment): (3.96%) | SAQ 4th question, ≧3 times per week: number of patients (12 months after treatment): 69 | SAQ 4th question, ≧4 times per day: % of patients (12 months after treatment): (0.11%) | SAQ 4th question, ≧4 times per day: number of patients (12 months after treatment): 2 | SAQ 5th question, 1-2 times per week: % of patients (12 months after treatment): (32.00%) | SAQ 5th question, 1-2 times per week: number of patients (12 months after treatment): 558 | SAQ 5th question, 1-3 times per day: % of patients (12 months after treatment): (6.14%) | SAQ 5th question, 1-3 times per day: number of patients (12 months after treatment): 107 | SAQ 5th question, <1 time per week: % of patients (12 months after treatment): (29.93%) | SAQ 5th question, <1 time per week: number of patients (12 months after treatment): 522 | SAQ 5th question, No onset: % of patients (12 months after treatment): (5.28%) | SAQ 5th question, No onset: number of patients (12 months after treatment): 92 | SAQ 5th question, ≧3 times per week: % of patients (12 months after treatment): (25.86%) | SAQ 5th question, ≧3 times per week: number of patients (12 months after treatment): 451
